Values quoted from earlier work, collected in patent US10537636B2, “Treatment of cancer with therapeutic monoclonal antibody specific for a tumor associated antigen and an immune adjuvant” (Oncoquest, Inc., priority 2017, dated 2020).

System: advanced ovarian cancer
Conditions: mono-immunotherapy following front-line chemotherapy

Substance: oregovomab
- clinical outcome: failed to improves clinical outcome
